Test results from US9243031B2, “Complex-forming compounds” (priority 2011, dated 2016).
“Also recorded” adds a separate entry of the source. Where two headings read alike, the source gives them in different places.

Key:
[1] = Quantum chemical calculation of the Ca2+ ion changing process (Gaussian09, B3LYP/LANL2DZ); conditions: ratio of calculated RH values
Method: Since there is no appropriate analytical method for the measurement of the complex-forming properties of these compounds with sufficient accuracy, we determined the complex-forming constants compared to the calcium ion complexes with high level quantum chemical calculations. The calculations were performed using Gaussian09 software on B3LYP/LANL2DZ theoretical level. In course of the calculations frequency calculations were also performed from which thermodynamic data were also determined.
The ion binding capabilities to each of ions are compared to the calcium binding capabilities, which is shown by RH (relative complex-forming tendency).
The thermodynamic data (ΔE, ΔH, ΔG) were calculated with mathematical equations from the values of E, H and G counted on quantum chemical basis: ΔE[complex-M]=E[complex-M]+E[CaCl2.6H2O]−{E[complex-Ca]+E[MCl2.6H2O]} ΔH[complex-M]=H[complex-M]+H[CaCl2.6H2O]−{H[complex-Ca]+H[MCl2.6H2O]} ΔG[complex-M]=G[complex-M]+G[CaCl2.6H2O]−{G[complex-Ca]+G[MCl2.6H2O]}
The relative complex-forming constant (RG) compared to the Ca^2+ ion can be calculated with the following equation: […]
Since the quotient formation expectedly causes a loss of entropy coefficients, the following equation was used which is more practical due to the fluctuation of the calculated entropy coefficient: […]

[2] = Measurement of metal selectivity by HPLC-MS (ESI), ratio of metal adduct to Ca adduct signals; format: binding
Method: (§1) Therefore, the measurements of Ca—Sr ionselectivity were carried out with an AGILENT 6140 Octapol MS (mass spectrometer) equipped with an AGILENT 1200 HPLC. The ionization was carried out by using an electron-spray (ESI, MM-FS) soft ionization equipment with positive detection. During the measurements different complex-forming compounds of the formulas (P-1), P-2), (P-3) prepared with the synthesizes shown above and decorporol of the formula (XI) were added to stock solutions, then the solutions were measured with mass spectrometry.
(§2) The measuring of Ca—Sr ionselectivity was carried out with an AGILENT 6140 Octapol MS (mass spectrometer) equipped with an AGILENT 1200 HPLC. The ionization was carried out by using an electron-spray (ESI, MM-FS) soft ionization equipment with positive detection. The used field strength was 10000V, the spray temperature 220° C., Fragmentor: 70; Treshold: 500, stepsize 0.2 Da; Ionization Switch Delay: 0 ms; Polarity Switch Delay 300 ms; Gain: 1:0; Mass range: 100-1200 Da. Nitrogen gas was used. These parameters were obtained by optimization. The used HPLC column was a 30 mm long WATERS ACQUITY UPLC column with an inner diameter of 2.1 mm and filled with C18 packing of 1.8 um. The amounts of the injected samples were changed between 2-10 ul. The eluents used due to the appropriate ionization were as follows:
(§3) Eluent A: 0.395 g of NH4HCO3 dissolved in 1 l water+50 ml MeCN.
(§4) Solution A: 0.1 M Ca ion stock solution: 222.1 mg (2 mmol) of anhydrous CaCl2 are dissolved in 20 ml of distilled water.
Solution B: 0.1 M Sr ion stock solution: 533.5 mg (2 mmol) of SrCl2.6H2O are dissolved in 20 ml of distilled water.
(§5) 100 μl of A stock solution and to 100 μl of I, II, III or IV solutions 100 μl of B-G solution are added according to the Table below and the amount of the thus obtained samples are completed to 1 ml, then injected into the HPLC.
(§6) A minimal retention time of 0.75 minutes was registered in case of the tests with Decorporol. We registered the free complex-forming compound (M+H+DA), the calcium adduct (M−H^++38 Da) and the strontium complex (M−H^++86 Da) in every case. Due to the very similar chemical properties of the Ca ion and the strontium ion it is presumable that they behave similarly during ionization, therefore we have determined the selectivity compared to Ca ion by the ratio of the average mass spectrometry signals of Ca adducts to Sr adducts. In case of the measurements of the physiologically important and toxic metal ions the compound of formula (P-3) was used. The signal of the corresponding metal ion adduct was always well separated from the signal of the mother compound and from the signal of the Ca-adduct.

[3] = as above; format: binding; remark: listed apart in the source
[4] = as above; format: binding; conditions: for binding of Cu ion (in words): HPLC-MS
Method: as §1, §2, §3, §4
Solution C: 0.1 M Cu ion stock solution: 500.0 mg (2 mmol) of CuSO4.5H2O are dissolved in 20 ml of distilled water.
as §5, §6

[5] = as above; format: binding; conditions: for binding of Zn ion (in words): HPLC-MS
Method: as §1, §2, §3, §4
Solution D: 0.1 M Zn ion stock solution: 272.5 mg (2 mmol) of ZnCl2 are dissolved in 20 ml of distilled water.
as §5, §6

[6] = as above; format: binding; remark: listed apart in the source
Method: as §1
The measuring of Ca—Sr ionselectivity was carried out with an AGILENT 6140 Octapol MS (mass spectrometer) equipped with an AGILENT 1200 HPLC. The ionization was carried out by using an electron-spray (ESI, MM-FS) soft ionization equipment with positive detection. The used field strength was 10000V, the spray temperature 220° C., Fragmentor: 70; Treshold: 500, stepsize 0.2 Da; Ionization Switch Delay: 0 ms; Polarity Switch Delay 300 ms; Gain: 1:0; Mass range: 100-1200 Da. […]
A minimal retention time of 0.75 minutes was registered in case of the tests with Decorporol. […] Due to the very similar chemical properties of the Ca ion and the strontium ion it is presumable that they behave similarly during ionization, therefore we have determined the selectivity compared to Ca ion by the ratio of the average mass spectrometry signals of Ca adducts to Sr adducts. […]

[7] = as above; format: binding; conditions: for binding of Sn ion (in words): HPLC-MS; for M^2+/Ca^2+ rate: M = Sn
Method: as §1, §2, §3, §4
Solution E: 0.1 M Sn ion stock solution: 379.6 mg (2 mmol) of SnCl2 are dissolved in 20 ml of distillated water.
as §5, §6

[8] = as above; format: binding; conditions: for binding of Pb ion / palladium (in words): HPLC-MS; for M^2+/Ca^2+ rate / M^2+/Ca^2+ rate, peak of decarboxylated fragment (in brackets): M = Pd
Method: as §1, §2, §3, §4
Solution F: 0.1 M Pb ion stock solution: 217.0 mg […] of Pb(OOCCF3)2 are dissolved in 5 ml distilled water.
as §5, §6

[9] = Decarboxylation observed during the HPLC-MS measurements; format: physicochemical
Method: The decarboxylation, which is characteristic of decorporol, was shown also during the measurements.
as §2, §6
This process is well-known and leads to slow degradation of decorporol. The mono-decarboxylated and the double-decarboxylated derivatives are the main contaminants of decorporol and their solubility is very low in water, therefore beyond a certain concentration the complexes could precipitate.

[10] = mice, compound added intravenously, calcium remained; cited from earlier work
[11] = during HPLC-MS measurements with metal ions

Compound | strontium binding affinity compared to the compound of formula (XI) [1] | MS peak of the free complex-forming compound compared with the peak of its Sr complex [2] | binding of strontium ion (in words) [2] | Sr^2+/Ca^2+ rate [3] | binding of Cu ion (in words) [4] | M^2+/Ca^2+ rate ([4]; M = Cu) | binding of Zn ion (in words) [5] | M^2+/Ca^2+ rate ([5]; M = Zn) | binding of Sn ion (in words) [7] | M^2+/Ca^2+ rate [7] | binding of Pb ion / palladium (in words) [8] | M^2+/Ca^2+ rate [8] | decarboxylation [9, 11] | also measured
2-(2-{16-[(1,2-Dicarboxy-ethylcarbamoil)-methyl]-1,4,10,13-tetraoxa-7,16-diaza-cyclooctadec-7-yl}-acetylamino)-succinic acid [(P-2)] | approximately 4 fold | significantly lower; also recorded: considerably smaller | stronger than Ca ion | 1.4 | – | – | – | – | – | – | – | – | – | –
O=C(CN1CCOCCOCCN(CC(=O)NC(C(=O)O)C(=O)O)CCOCCOCC1)NC(C(=O)O)C(=O)O [(P-1), 2-(2-{16-[(Dicarboxymethyl-carbamoyl)-methyl]-1,4,10,13-tetraoxa-7,16-diaza-cyclooctadec-7-yl}-acetiyamino)-malonic acid] | more than 4 fold | significantly lower; also recorded: considerably smaller | – | 1.25 | – | – | – | – | – | – | – | – | – | –
O=C(O)CCC(NC(=O)CN1CCOCCOCCN(CC(=O)NC(CCC(=O)O)C(=O)O)CCOCCOCC1)C(=O)O (stereo not drawn) [(P-3), 2-(2-{16-[(1,3-Dicarboxy-propylcarbamoyl)-methyl]-1,4,10,13-tetraoxa-7,16-diaza-cyclooctadec-7-yl}-acetylamino)-pentanedioic acid] | – | significantly lower; also recorded: considerably smaller | strongest; also recorded: stronger than Ca ion | 1.5 | a little stronger than Ca ion; also recorded: slightly binds | 1.1 | does not bind | ca. 0 | very strongly | 100 | very strongly | 29 | does not decarboxylate | binding of Fe ion (in words) ([6]; HPLC-MS): does not bind; M^2+/Ca^2+ rate ([6]; M = Fe): ca. 0
O=C(O)C(C(=O)O)N1CCOCCOCCN(C(C(=O)O)C(=O)O)CCOCCOCC1 [Decorporol, (7,16-bis-malonate)-1,4,10,13-tetraoxa-7,16-diazacyclooctadecane-bis-malonic acid] | – | – | – | 1.2 | a bit stronger than the compound of the formula of (P-3) | 1.2 | stronger than Ca | 8 | significantly less | 22 | significantly less | 20 | significant decarboxylation | MS peak of the free complex-forming compound compared with the peak of its Sr complex ([2]; listed as decorporol): worse; also recorded: lower; M^2+/Ca^2+ rate, peak of decarboxylated fragment (in brackets) ([4]; M = Cu): 1.5; binding of Zn ion (in words) ([5]; listed as decorporol): Good binding; also recorded: stronger than Ca ions; M^2+/Ca^2+ rate, peak of decarboxylated fragment (in brackets) ([5]; M = Zn): 4; M^2+/Ca^2+ rate, peak of decarboxylated fragment (in brackets) ([8]; first bracketed peak): 29; M^2+/Ca^2+ rate, peak of decarboxylated fragment (in brackets) ([8]; second bracketed peak): 40; decarboxylation ([9]; in case of Pb ion): very strong decarboxylation process; removal of strontium from the body [10]: removed selectively
